In patent publication US20260125382A1, “COMPOUNDS FOR INHIBITING OR DEGRADING CDK2 AND/OR CDK9 AND MEDICINAL USE THEREOF” (KOREA RESEARCH INSTITUTE OF CHEMICAL TECHNOLOGY, priority 2022, published 2026):

Columns and labels:
CDK2 = target: T1, CDK2 (Homo sapiens, UniProt P24941); test: CDK protein degradation activity (Western blotting), CDK2; assay type: cell-based; details: MDA-MB-231 cells, 16 hours, Western blot
T1 construct: endogenous in cells; host or cells: MDA-MB-231
Outline: (§1)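 MDA-MB-231; cmpd 100 nM / 1 μM / 10 μM final vs DMSO, 16 h. Triton X-100 lysates (pH 7.5, phosphatase/protease inhibitors) → SDS-PAGE → Western blot, anti-CDK2, anti-CDK9, tubulin loading control; densitometry.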

CDK9 = target: T2, CDK9 (Homo sapiens, UniProt P50750); test: CDK protein degradation activity (Western blotting), CDK9; assay type: cell-based; details: MDA-MB-231 cells, 16 hours, Western blot
T2 construct: endogenous in cells; host or cells: MDA-MB-231
Outline: as §1

T2 sequence (P50750 whole entry): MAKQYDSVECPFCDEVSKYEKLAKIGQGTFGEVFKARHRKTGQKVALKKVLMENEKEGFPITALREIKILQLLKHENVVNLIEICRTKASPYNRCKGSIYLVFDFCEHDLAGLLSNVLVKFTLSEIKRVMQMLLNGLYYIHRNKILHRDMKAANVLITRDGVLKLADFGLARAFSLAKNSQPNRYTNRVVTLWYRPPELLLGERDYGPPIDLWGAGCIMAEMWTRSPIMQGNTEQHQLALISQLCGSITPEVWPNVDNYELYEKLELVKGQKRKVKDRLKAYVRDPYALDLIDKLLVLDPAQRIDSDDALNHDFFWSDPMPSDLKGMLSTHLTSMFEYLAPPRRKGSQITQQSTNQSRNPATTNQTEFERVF

| Structure (SMILES) | Enzyme degradation CDK2 (% remaining) @ 0.1 μM (CDK2) | Enzyme degradation CDK2 (% remaining) @ 1 μM (CDK2) | Enzyme degradation CDK2 (% remaining) @ 10 μM (CDK2) | Enzyme degradation CDK9 (% remaining) @ 0.1 μM (CDK9) | Enzyme degradation CDK9 (% remaining) @ 1 μM (CDK9) | Enzyme degradation CDK9 (% remaining) @ 10 μM (CDK9) |
| --- | --- | --- | --- | --- | --- | --- |
| O=C1CC[C@H](N2C(=O)c3ccc(N4CCC(C(=O)N5CCN(CCC6CCN(c7ccc(Nc8ncnc9c8ncn9[C@H]8C[C@@H](NC(=O)Cc9ccccc9)C8)cc7)CC6)CC5)CC4)cc3C2=O)C(=O)N1 [Compound 363, N-((1s,3s)-3-(6-((4-(4-(2-(4-(1-(2-(2,6-dioxopiperidin-3-yl)-1,3-dioxoisoindolin-5-yl)piperidin-4-carbonyl)piperazin-1-yl)ethyl)piperidin-1-yl)phenyl)amino)-9H-purin-9-yl)cyclobutyl)-2-phenylacetamide] | 100% | 50% | 30% | 40% | 0% | 0% |
| Cc1cccc(C(=O)N[C@H]2C[C@@H](n3cnc4c(NCc5cccc(N6CCN(C(=O)CNc7ccc8c(c7)C(=O)N([C@H]7CCC(=O)NC7=O)C8=O)CC6)c5)ncnc43)C2)n1 [Compound 131, N-((1s,3s)-3-(6-((3-(4-((2-(2,6-dioxopiperidin-3-yl)-1,3-dioxoisoindolin-5-yl)glycyl)piperazin-1-yl)benzyl)amino)-9H-purin-9-yl)cyclobutyl)-6-methylpicolinamide] | 80% | 100% | 100% | 60/60/60% | 60/60/60% | 60/60/60% |
| O=C1CC[C@H](N2C(=O)c3cccc(OCC(=O)N4CCN(CC5CCN(c6ccc(Nc7ncnc8c7ncn8C7CC(NC(=O)Cc8ccccc8)C7)cc6)CC5)CC4)c3C2=O)C(=O)N1 (stereo partly drawn) [Compound 326, N-((1s,3s)-3-(6-((4-(4-((4-(2-((2-(2,6-dioxopiperidin-3-yl)-1,3-dioxoisoindolin-4-yl)oxy)acetyl)piperazin-1-yl)methyl)piperidin-1-yl)phenyl)amino)-9H-purin-9-yl)cyclobutyl)-2-phenylacetamide] | 20% | 0% | 0% | 80% | 10% | 0% |
| O=C1CC[C@H](N2C(=O)c3ccc(N4CCN(CCCC5CCN(c6ccc(Nc7ncnc8c7ncn8C7CC(NC(=O)Cc8ccccc8)C7)cc6)CC5)CC4)cc3C2=O)C(=O)N1 (stereo partly drawn) [Compound 347, N-((1s,3s)-3-(6-((4-(4-(3-(4-(2-(2,6-dioxopiperidin-3-yl)-1,3-dioxoisoindolin-5-yl)piperazin-1-yl)propyl)piperidin-1-yl)phenyl)amino)-9H-purin-9-yl)cyclobutyl)-2-phenylacetamide] | 10% | 0% | 0% | 30% | 0% | 0% |
| O=C1CC[C@@H](c2ccc(OCC(=O)N3CCC4(CC3)CC(N3CCC(c5ccc(Nc6ncnc7c6ncn7C6CC(NC(=O)Cc7ccccc7)C6)cc5)CC3)C4)cc2)C(=O)N1 (stereo partly drawn) [Compound 284, N-((1s,3s)-3-(6-((4-(1-(7-(2-(4-(2,6-dioxopiperidin-3-yl)phenoxy)acetyl)-7-azaspiro[3.5]nonan-2-yl)piperidin-4-yl)phenyl)amino)-9H-purin-9-yl)cyclobutyl)-2-phenylacetamide] | 40% | 50% | 60% | 0/0/0% | 0/0/0% | 0/0/0% |
| O=C1CCC(N2C(=O)c3cccc(NCC(=O)N4CCC5(CC4)CC(N4CCC(c6ccc(Nc7ncnc8c7ncn8[C@H]7C[C@@H](NC(=O)Cc8ccccc8)C7)cc6)CC4)C5)c3C2=O)C(=O)N1 (stereo partly drawn) [Compound 294, N-((1s,3s)-3-(6-((4-(1-(7-((2-(2,6-dioxopiperidin-3-yl)-1,3-dioxoisoindolin-4-yl)glycyl)-7-azaspiro[3.5]nonan-2-yl)piperidin-4-yl)phenyl)amino)-9H-purin-9-yl)cyclobutyl)-2-phenylacetamide] | 10/10/10% | 10/10/10% | 10/10/10% | 0/0/0% | 0/0/0% | 0/0/0% |
| O=C1CC[C@H](N2C(=O)c3ccc(NCC(=O)N4CCC(CC(=O)N5CCN(c6ccc(Nc7ncnc8c7ncn8C7CC(NC(=O)Cc8ccccc8)C7)cc6)CC5)CC4)cc3C2=O)C(=O)N1 (stereo partly drawn) [Compound 213, N-((1s,3s)-3-(6-((4-(4-(2-(1-((2-(2,6-dioxopiperidin-3-yl)-1,3-dioxoisoindolin-5-yl)glycyl)piperidin-4-yl)acetyl)piperazin-1-yl)phenyl)amino)-9H-purin-9-yl)cyclobutyl)-2-phenylacetamide] | 50% | 70% | 50% | 70% | 30% | 10% |
| O=C1CC[C@H](N2C(=O)c3ccc(N4CCC(C(=O)N5CCN(CCCC6CCN(c7ccc(Nc8ncnc9c8ncn9[C@H]8C[C@@H](NC(=O)Cc9ccccc9)C8)cc7)CC6)CC5)CC4)cc3C2=O)C(=O)N1 [Compound 367, N-((1s,3s)-3-(6-((4-(4-(3-(4-(1-(2-(2,6-dioxopiperidin-3-yl)-1,3-dioxoisoindolin-5-yl)piperidin-4-carbonyl)piperazin-1-yl)propyl)piperidin-1-yl)phenyl)amino)-9H-purin-9-yl)cyclobutyl)-2-phenylacetamide] | 10% | 0% | 0% | 10% | 0% | 0% |
| O=C1CC[C@H](N2C(=O)c3cccc(OCC(=O)N4CCC5(CC(N6CCN(c7ccc(Nc8ncnc9c8ncn9[C@H]8C[C@@H](NC(=O)Cc9ccccc9)C8)cc7)CC6)C5)C4)c3C2=O)C(=O)N1 (stereo partly drawn) [Compound 264, N-((1s,3s)-3-(6-((4-(4-(6-(2-((2-(2,6-dioxopiperidin-3-yl)-1,3-dioxoisoindolin-4-yl)oxy)acetyl)-6-azaspiro[3.4]octan-2-yl)piperazin-1-yl)phenyl)amino)-9H-purin-9-yl)cyclobutyl)-2-phenylacetamide] | 50% | 20% | 10% | 90% | 40% | 0% |
| CC(=O)NC1CC(n2cnc3c(NCC4CCN(CC5CCN(c6cccc7c6C(=O)N([C@H]6CCC(=O)NC6=O)C7=O)CC5)CC4)ncnc32)C1 (stereo partly drawn) [Compound 159, N-((1s,3s)-3-(6-(((1-((1-(2-(2,6-dioxopiperidin-3-yl)-1,3-dioxoisoindolin-4-yl)piperidin-4-yl)methyl)piperidin-4-yl)methyl)amino)-9H-purin-9-yl)cyclobutyl)acetamide] | 100% | 80% | 50% | 90% | 70% | 30% |
| N#Cc1cccc(C(=O)NC2CC(n3cnc4c(Nc5ccc(N6CCN(CC7CCN(c8ccc9c(c8)C(=O)N([C@H]8CCC(=O)NC8=O)C9=O)CC7)CC6)cc5)ncnc43)C2)n1 (stereo partly drawn) [Compound 392, 6-cyano-N-((1s,3s)-3-(6-((4-(4-((1-(2-(2,6-dioxopiperidin-3-yl)-1,3-dioxoisoindolin-5-yl)piperidin-4-yl)methyl)piperazin-1-yl)phenyl)amino)-9H-purin-9-yl)cyclobutyl)picolinamide] | 0% | 0% | 10% | 0/0/0% | 0/0/0% | 0/0/0% |
| O=C1CC[C@H](N2C(=O)c3cccc(N4CC(N5CCC6(CC5)CC(N5CCN(c7ccc(Nc8ncnc9c8ncn9[C@H]8C[C@@H](NC(=O)Cc9ccccc9)C8)cc7)CC5)C6)C4)c3C2=O)C(=O)N1 [Compound 270, N-((1s,3s)-3-(6-((4-(4-(7-(1-(2-(2,6-dioxopiperidin-3-yl)-1,3-dioxoisoindolin-4-yl)azetidin-3-yl)-7-azaspiro[3.5]nonan-2-yl)piperazin-1-yl)phenyl)amino)-9H-purin-9-yl)cyclobutyl)-2-phenylacetamide] | 40% | 30% | 30% | 40% | 30% | 30% |
| O=C1CC[C@H](N2C(=O)c3ccc(N4CC(N5CCC6(CC5)CC(N5CCN(c7ccc(Nc8ncnc9c8ncn9C8CC(NC(=O)Cc9ccccc9)C8)cc7)CC5)C6)C4)cc3C2=O)C(=O)N1 (stereo partly drawn) [Compound 271, N-((1s,3s)-3-(6-((4-(4-(7-(1-(2-(2,6-dioxopiperidin-3-yl)-1,3-dioxoisoindolin-5-yl)azetidin-3-yl)-7-azaspiro[3.5]nonan-2-yl)piperazin-1-yl)phenyl)amino)-9H-purin-9-yl)cyclobutyl)-2-phenylacetamide] | 30% | 40% | 40% | 20% | 10% | 10% |
